Blank lines part the entries; values can stand above or below the compound they belong to.
Assays:
human 5-HT6 receptor = human 5-HT6 receptor (Homo sapiens (Human), UniProt P50406); experiment: Radioligand binding assay, human 5-HT6 receptor expressed in CHO cell; conditions: 2 nM [3H]LSD
Method: Example A: The Binding Affinities of the Compounds of this Invention to Human 5-HT6 Receptor Expressed in CHO Cell were Evaluated by Radioligand Binding Assay as Follows
32 μg membrane proteins of CHO cell expressing human 5-HT6 receptor, 2 nM of radioactive marker [3H]LSD, a compound of the present invention having different test concentrations, 100 μM 5-HT (5-HT was used to eliminate nonspecific binding sites) and a buffer solution were mixed uniformly. Then the resulting mixture was incubated at 37° C. for 120 min, in which the buffer solution comprised 50 mM Tris-HCl (pH 7.4), 10 mM MgCl2, 0.5 mM EDTA, 10 μM pargyline and 20 mg/L protease inhibitor.
After incubation, the resulting mixture was filtered by a fiberglass filter (GF/B, Packard) in vacuo, and the filter membrane of the fiberglass filter was preimpregnated with 0.3% PEI before the filtering and washed with 50 mM of Tris-HCl for several times after the filtering. After the filter membrane was dried, and the radioactivity of filter membrane was determined by liquid scintillation counting by using a scintillometer (Topcount, Packard). The reference standard was 5-HT, and competitive inhibition curves were plotted based on several inhibition ratios and the corresponding compound concentrations. IC50 values were calculated by non-linear regression analysis using Hill equation curves, and the Ki values were calculated from IC50 by using the ChengPrusoff equation.

[1] = Pharmacokinetic evaluation after intravenous or gavage administration to dogs; type: in vivo, Beagle dogs; conditions: for AUC(0-inf) / AUC(0-t) / Cmax / MRT inf / Tmax / clearance / half-life / Vd: beagle, dog, plasma; for Vd: read-out: Vss
Method: Example B: Pharmacokinetic Evaluation after Administering a Certain Amount of the Compounds of the Invention Intravenously or by Gavage to Dogs and Monkeys
In vivo pharmacokinetic assays in dogs and cynomolgus monkeys of the compounds disclosed herein were performed by the following steps.
Experiments were divided into two groups, one group was administered through intravenous drug delivery, and the other group was administered by gavage. The compounds disclosed herein were administered in form of a saline solution containing 5% DMSO, 5% Kolliphor HS 15, 2% (2% HCl) and 88% Saline, or the solution containing 10% DMSO, 10% Kolliphor HS 15 and 80% physiological saline. For intravenous administration, the animals were administered with a dose of 1 mg/kg, and 0.3 mL of vein blood was collected at the time points of 0.083, 0.25, 0.5, 1.0, 2.0, 4.0, 6.0, 8.0 and 24 h after drug administration (the time point of drug administration was set as 0 h), then each blood sample was processed to separate plasma by centrifugation at 3000 rpm or 4000 rpm for 10 minutes, and plasma was collected and stored at −20° C. or −70° C. until LC/MS/MS analysis described above. For gavage administration, the animals were administered with a dose of 2.5 mg/kg or 5 mg/kg, and 0.3 mL of vein blood was collected at the time points of 0.25, 0.5, 1.0, 2.0, 4.0, 6.0, 8.0 and 24 h after drug administration (the time point of drug administration was set as 0 h), then each blood sample was processed to separate plasma by centrifugation at 3000 rpm or 4000 rpm for 10 minutes, and plasma was collected and stored at −20° C. or −70° C. until LC/MS/MS analysis described above.
The above plasma was analyzed by the LC/MS/MS system.

[2] = Stability in rat liver microsomes; type: in vitro ADME; conditions: rat liver microsome 0.5 mg/mL, 1 μM compound, 37° C.; for half-life at 1 μM: pH 7.4; for CLint scaled at 1 μM: pH 7.4, read-out: Intrinsic clearance
Method: (§1) Example C: Evaluation of the Stability of the Compounds of the Invention in Rat and Human Liver Microsomes
(§2) The compound of the invention and rat liver microsome or human liver microsome were placed in 0.1 M potassium phosphate buffer (containing 1.0 mM EDTA, pH=7.4) at 37° C., and the mixture was incubated at 37° C. The concentrations of the compound at different incubation time points were determined, and the half-life of the compound was calculated by curve plotted based on the relative contents of the compound and the corresponding incubation times by using GraphPad Prism 5.01. Then the intrinsic clearance was calculated.
(§3) The peak area ratio of sample to internal standard was analyzed by the LC/MS/MS system. The content of the compound at 0 min was 100%, and the relative contents of the compound at different time points were calculated. The half-life of the compound was calculated by curve plotted based on the relative contents of the compound and the corresponding incubation times, and the intrinsic clearance was calculated.

[3] = Stability in human liver microsomes; type: in vitro ADME; conditions: for half-life at 1 μM / CLint scaled at 1 μM: liver microsomes, human liver microsome 0.5 mg/mL, 1 μM compound, 37° C., pH 7.4; for CLint scaled at 1 μM: read-out: Intrinsic clearance; for degradation in human liver microsomes in vitro: in 60 minutes
Method: as §1, §2, §3

[4] = intravenous drug delivery group, dose 1 mg/kg
[5] = po, gavage group, dose 2.5 mg/kg

human 5-HT6 receptor, sequence (P50406 whole entry): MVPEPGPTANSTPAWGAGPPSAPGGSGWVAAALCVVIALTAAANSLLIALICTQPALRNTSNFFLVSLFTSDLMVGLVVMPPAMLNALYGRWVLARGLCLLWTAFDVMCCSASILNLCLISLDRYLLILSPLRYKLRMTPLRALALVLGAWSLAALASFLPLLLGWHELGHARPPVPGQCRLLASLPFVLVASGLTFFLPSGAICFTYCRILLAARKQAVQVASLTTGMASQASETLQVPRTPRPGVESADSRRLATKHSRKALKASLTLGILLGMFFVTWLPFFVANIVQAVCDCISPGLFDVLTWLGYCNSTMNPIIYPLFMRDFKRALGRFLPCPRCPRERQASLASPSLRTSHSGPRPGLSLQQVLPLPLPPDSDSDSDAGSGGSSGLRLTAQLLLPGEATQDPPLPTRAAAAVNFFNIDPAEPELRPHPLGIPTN

Ki (human 5-HT6 receptor): 0.46 nM | AUC(0-inf) [1, 4]: 926 ng·h/mL | AUC(0-t) [1, 4]: 781 ng·h/mL | Cmax [1, 4]: 106 ng/mL | MRT inf [1, 4]: 8.73 h | Tmax [1, 4]: 0.194 h | clearance [1, 4]: 18.5 mL/min/kg | half-life [1, 4]: 386 min | Vd [1, 4]: 9.86 L/kg | AUC(0-inf) [1, 5]: 3160 ng·h/mL | AUC(0-t) [1, 5]: 2400 ng·h/mL | Cmax [1, 5]: 173 ng/mL | MRT inf [1, 5]: 16.8 h | Tmax [1, 5]: 3.33 h | half-life [1, 5]: 684 min | F ([1]; gavage group, dose 2.5 mg/kg): 103.67% | half-life at 1 μM [2]: 35 min | CLint scaled at 1 μM [2]: 71 mL/min/kg | half-life at 1 μM [3]: 133 min | CLint scaled at 1 μM [3]: 13.1 mL/min/kg
Compound: O=S(=O)(c1ccccc1F)n1cc(C(F)F)c2c(N3CCNCC3)cccc21 [Example 2, 3-(difluoromethyl)-1-((2-fluorophenyl)sulfonyl)-4-(piperazin-1-yl)-1H-indole]

Ki (human 5-HT6 receptor): 0.43 nM | AUC(0-inf) [1, 4]: 2340 ng·h/mL | AUC(0-t) [1, 4]: 2660 ng·h/mL | Cmax [1, 4]: 293 ng/mL | MRT inf [1, 4]: 8.77 h | Tmax [1, 4]: 8.06 h | clearance [1, 4]: 7.13 mL/min/kg | half-life [1, 4]: 376 min | Vd [1, 4]: 3.77 L/kg | AUC(0-inf) [1, 5]: 17600 ng·h/mL | AUC(0-t) [1, 5]: 9250 ng·h/mL | Cmax [1, 5]: 975 ng/mL | MRT inf [1, 5]: 17.9 h | Tmax [1, 5]: 4.67 h | half-life [1, 5]: 882 min | F ([1]; gavage group, dose 2.5 mg/kg): 139% | half-life at 1 μM [2]: 30.1 min | CLint scaled at 1 μM [2]: 82.6 mL/min/kg | half-life at 1 μM [3]: 132 min | CLint scaled at 1 μM [3]: 13.2 mL/min/kg
Compound: O=S(=O)(c1ccccc1Cl)n1cc(C(F)F)c2c(N3CCNCC3)cccc21 [Example 3, 1-((2-chlorophenyl)sulfonyl)-3-(difluoromethyl)-4-(piperazin-1-yl)-1H-indole]

Ki (human 5-HT6 receptor): 1.1 nM | half-life at 1 μM [2]: 30.4 min | CLint scaled at 1 μM [2]: 81.8 mL/min/kg | half-life at 1 μM [3]: 157 min | CLint scaled at 1 μM [3]: 11.1 mL/min/kg
Compound: O=S(=O)(c1ccccc1Br)n1cc(C(F)F)c2c(N3CCNCC3)cccc21 [Example 4, 1-((2-bromophenyl)sulfonyl)-3-(difluoromethyl)-4-(piperazin-1-yl)-1H-indole]

Ki (human 5-HT6 receptor): 0.52 nM | AUC(0-inf) [1, 4]: 1190 ng·h/mL | AUC(0-t) [1, 4]: 1100 ng·h/mL | Cmax [1, 4]: 125 ng/mL | MRT inf [1, 4]: 8.77 h | Tmax [1, 4]: 0.389 h | clearance [1, 4]: 14 mL/min/kg | half-life [1, 4]: 389 min | Vd [1, 4]: 7.36 L/kg | AUC(0-inf) ([1]; po, gavage group, dose 5 mg/kg): 8350 ng·h/mL | AUC(0-t) ([1]; po, gavage group, dose 5 mg/kg): 5680 ng·h/mL | Cmax ([1]; po, gavage group, dose 5 mg/kg): 347 ng/mL | MRT inf ([1]; po, gavage group, dose 5 mg/kg): 15 h | Tmax ([1]; po, gavage group, dose 5 mg/kg): 6 h | half-life ([1]; po, gavage group, dose 5 mg/kg): 606 min | F ([1]; gavage group, dose 5 mg/kg): 103.21% | half-life at 1 μM [2]: 43.5 min | CLint scaled at 1 μM [2]: 57.1 mL/min/kg | degradation in human liver microsomes in vitro [3]: almost had no degradation | half-life at 1 μM [3]: 218 min | CLint scaled at 1 μM [3]: 7.99 mL/min/kg
Compound: O=S(=O)(c1cccc(F)c1)n1cc(C(F)F)c2c(N3CCNCC3)cccc21 [Example 5, 3-(difluoromethyl)-1-((3-fluorophenyl)sulfonyl)-4-(piperazin-1-yl)-1H-indole]

Ki (human 5-HT6 receptor): 0.68 nM | half-life at 1 μM [2]: 35.5 min | CLint scaled at 1 μM [2]: 70 mL/min/kg | degradation in human liver microsomes in vitro [3]: almost had no degradation
Compound: O=S(=O)(c1cccc(Cl)c1)n1cc(C(F)F)c2c(N3CCNCC3)cccc21 [Example 6, 1-((3-chlorophenyl)sulfonyl)-3-(difluoromethyl)-4-(piperazin-1-yl)-1H-indole]

Ki (human 5-HT6 receptor): 0.68 nM
Compound: O=S(=O)(c1ccccc1Cl)n1cc(C(F)F)c2c(N3CCNCC3)cc(Cl)cc21 [Example 25, 6-chloro-1-((2-chlorophenyl)sulfonyl)-3-(difluoromethyl)-4-(piperazin-1-yl)-1H-indole]

Ki (human 5-HT6 receptor): 1.1 nM
Compound: O=S(=O)(c1ccccc1Br)n1cc(C(F)F)c2c(N3CCNCC3)cc(Cl)cc21 [Example 26, 1-((2-bromophenyl)sulfonyl)-6-chloro-3-(difluoromethyl)-4-(piperazin-1-yl)-1H-indole]

Ki (human 5-HT6 receptor): 1.9 nM
Compound: O=S(=O)(c1cccc(F)c1)n1cc(C(F)F)c2c(N3CCNCC3)cc(Cl)cc21 [Example 27, 6-chloro-3-(difluoromethyl)-1-((3-fluorophenyl)sulfonyl)-4-(piperazin-1-yl)-1H-indole]

Ki (human 5-HT6 receptor): 1.4 nM
Compound: O=S(=O)(c1cccc(Cl)c1)n1cc(C(F)F)c2c(N3CCNCC3)cc(Cl)cc21 [Example 28, 6-chloro-1-((3-chlorophenyl)sulfonyl)-3-(difluoromethyl)-4-(piperazin-1-yl)-1H-indole]

Ki (human 5-HT6 receptor): 1.3 nM
Compound: O=S(=O)(c1cccc(Br)c1)n1cc(C(F)F)c2c(N3CCNCC3)cc(Cl)cc21 [Example 29, 1-((3-bromophenyl)sulfonyl)-6-chloro-3-(difluoromethyl)-4-(piperazin-1-yl)-1H-indole]

Ki (human 5-HT6 receptor): 1.9 nM
Compound: O=S(=O)(c1cccc(F)c1)n1cc(C(F)F)c2c(N3CCNCC3)cc(Br)cc21 [Example 35, 6-bromo-3-(difluoromethyl)-1-((3-fluorophenyl)sulfonyl)-4-(piperazin-1-yl)-1H-indole]

Ki (human 5-HT6 receptor): 1.7 nM
Compound: O=S(=O)(c1cccc(Cl)c1)n1cc(C(F)F)c2c(N3CCNCC3)cc(Br)cc21 [Example 36, 6-bromo-1-((3-chlorophenyl)sulfonyl)-3-(difluoromethyl)-4-(piperazin-1-yl)-1H-indole]

Ki (human 5-HT6 receptor): 1.5 nM
Compound: O=S(=O)(c1cccc(Br)c1)n1cc(C(F)F)c2c(N3CCNCC3)cc(Br)cc21 [Example 37, 6-bromo-1-((3-bromophenyl)sulfonyl)-3-(difluoromethyl)-4-(piperazin-1-yl)-1H-indole]

Ki (human 5-HT6 receptor): 0.7 nM
Compound: CN1CCN(c2cccc3c2c(C(F)F)cn3S(=O)(=O)c2cccc(F)c2)CC1 [Example 42, 3-(difluoromethyl)-1-((3-fluorophenyl)sulfonyl)-4-(4-methylpiperazin-1-yl)-1H-indole]

Ki (human 5-HT6 receptor): 2.3 nM
Compound: CCN1CCN(c2cccc3c2c(C(F)F)cn3S(=O)(=O)c2cccc(F)c2)CC1 [Example 43, 3-(difluoromethyl)-4-(4-ethylpiperazin-1-yl)-1-((3-fluorophenyl)sulfonyl)-1H-indole]

Ki (human 5-HT6 receptor): 27 nM
Compound: CC(C)N1CCN(c2cccc3c2c(C(F)F)cn3S(=O)(=O)c2cccc(F)c2)CC1 [Example 44, 3-(difluoromethyl)-1-((3-fluorophenyl)sulfonyl)-4-(4-isopropylpiperazin-1-yl)-1H-indole]

Ki (human 5-HT6 receptor): 18 nM
Compound: O=S(=O)(c1cccc(F)c1)n1cc(C(F)F)c2c(NC3CCNCC3)cccc21 [Example 52, 3-(difluoromethyl)-1-((3-fluorophenyl)sulfonyl)-N-(piperidin-4-yl)-1H-indol-4-amine]

Ki (human 5-HT6 receptor): 11 nM
Compound: O=S(=O)(c1cccc(Br)c1)n1cc(C(F)F)c2c(NC3CCNCC3)cccc21 [Example 54, 1-((3-bromophenyl)sulfonyl)-3-(difluoromethyl)-N-(piperidin-4-yl)-1H-indol 4-amine]

Ki (human 5-HT6 receptor): 65 nM
Compound: O=S(=O)(c1ccccc1)n1cc(C(F)F)c2c(NC3CCNCC3)cccc21 [Example 55, 3-(difluoromethyl)-1-(phenylsulfonyl)-N-(piperidin-4-yl)-1H-indol-4-amine]

Reference: patent US9974785B2, “Aromatic heterocyclic derivatives and pharmaceutical applications thereof” (SUNSHINE LAKE PHARMA CO., LTD., priority 2014, dated 2018)
